Data: patent US11844777B2, “Methods of treating autoimmune microvascular disorders” (PRIMUS PHARMACEUTICALS, INC., priority 2017, dated 2023)

Experiments:
[1] = system: streptozotocin-induced diabetic hamster cheek pouch; conditions: cited from earlier work
[2] = system: leukocyte and endothelial cell adhesion molecules; conditions: variety of ischemia/reperfusion models; cited from earlier work
[3] = system: hamster cheek pouch; conditions: pretreatment with 2, 20, 80 and 160 mg/kg/d; ischemia/reperfusion; cited from earlier work
[4] = cited from earlier work
[5] = system: digital ulcers; assay: randomized, double blind, placebo controlled clinical trial of diosmin on digital ulcers; type: in vivo, human
Experimental: To evaluate the effect of diosmin on Raynaud's and digital ulcers, a randomized, double blind, placebo controlled clinical trial was conducted. In this trial, subjects were randomized to receive either 600 mg of diosmin or matching placebo twice daily. The trial recorded improvement/healing of ulcers. Subjects with ulcers who were not on active ulcer therapy were required to have at least one stable or worsening digital ulcer for at least one month and subjects receiving ulcer therapy were required to have at least one stable or worsening ulcer on stable therapy for at least two months and therapy was required to remain constant for the duration of the trial.

[6] = system: rabbit ear veins; conditions: 300 mg/kg/d from 7 days before to 4 days after sclerotherapy; p<0.001; cited from earlier work

Structure (SMILES): COc1ccc(-c2cc(=O)c3c(O)cc(O[C@@H]4O[C@H](CO[C@@H]5O[C@@H](C)[C@H](O)[C@@H](O)[C@H]5O)[C@@H](O)[C@H](O)[C@H]4O)cc3o2)cc1O [diosmin, (7-[[6-O-(6-Deoxy-α-L-mannopyranosyl)-β-D-glucopyranosyl]oxy]-5-hydroxy-2-(3-hydroxy-4-methoxyphenyl)-4H-1-benzopyran-4-one)]
- number of leukocytes adhering to the endothelium after reperfusion ([1]; after reperfusion following 30 minutes of ischemia): deceased as did the number of leukocytes adhering to the endothelium
- number of capillary leaks induced by each of the test articles, bradykinin, and LTB4 ([1]; pretreatment with diosmin, diabetic hamster cheek pouch): significantly reduced
- overexpression of leukocyte and endothelial cell adhesion molecules [2]: inhibit
- arteriolar vasodilation, reduction in flow velocity and decrease in functional capillary density [3]: reversed all these changes towards normal in a dose dependent manner
- form found in blood after oral ingestion [4]: Diosmetin
- Number of New Ulcers Appearing between Baseline and Week 4 ([5]; 600 mg diosmin twice daily, Week 4, all digital ulcers (including 9 ulcers in 4 non-scleroderma subjects)): 14
- Number of Ulcers Healed at Week 4 Relative to Baseline ([5]; 600 mg twice daily, Week 4, healed/total ulcers, p 0.1251 vs placebo): 18/43
- Number with >= 50% Improvement at Week 4 Relative to Baseline ([5]; 600 mg twice daily, Week 4, improved/total ulcers, p 0.0905 vs placebo): 23/43
- % with >= 50% Improvement at Week 4 Relative to Baseline ([5]; 600 mg twice daily, Week 4, p 0.0905 vs placebo): (53.5%)
- % of Ulcers Healed at Week 4 Relative to Baseline ([5]; 600 mg twice daily, Week 4, p 0.1251 vs placebo): (41.9%)
- Number of Ulcers Healed at Week 8 Relative to Baseline ([5]; 600 mg twice daily, Week 8, healed/total ulcers, p 0.0113 vs placebo): 31/42
- Number of Ulcers Healed at Week 8 Relative to Week 4 ([5]; 600 mg twice daily, Week 8, healed/total ulcers, p 0.0600 vs placebo): 18/37
- Number with >= 50% Improvement at Week 8 Relative to Baseline ([5]; 600 mg twice daily, Week 8, improved/total ulcers, p 0.0018 vs placebo): 39/42
- Number with >= 50% Improvement at Week 8 Relative to Week 4 ([5]; 600 mg twice daily, Week 8, improved/total ulcers, p 0.0207 vs placebo): 25/37
- % with >= 50% Improvement at Week 8 Relative to Baseline ([5]; 600 mg twice daily, Week 8, p 0.0018 vs placebo): (92.9%)
- % of Ulcers Healed at Week 8 Relative to Baseline ([5]; 600 mg twice daily, Week 8, p 0.0113 vs placebo): (73.8%)
- % with >= 50% Improvement at Week 8 Relative to Week 4 ([5]; 600 mg twice daily, Week 8, p 0.0207 vs placebo): (67.6%)
- % of Ulcers Healed at Week 8 Relative to Week 4 ([5]; 600 mg twice daily, Week 8, p 0.0600 vs placebo): (48.6%)
- functional capillary density [6]: preserved
- increase in venous and arteriolar diameter [6]: prevented
- number of adherent leukocytes [6]: reduced
- number of capillary leakage sites [6]: reduced
- perivenous edema [6]: reduced
